Laboratory results from patent US5721106A, “In Vitro method for screening β-amyloid deposition” (Regents of the University of Minnesota, priority 1994, dated 1998).
Entries after “also recorded” stand apart in the source; their conditions may differ. Ends that are not written are not given here. Peptide text beside a SMILES is read from it.

Columns and labels:
[1] = molecular target: T1, labelled β-amyloid peptide (Homo sapiens, UniProt P05067); assay: In vitro aggregation of labelled β-amyloid peptide in the absence of plaques (centrifugation, supernatant counting); format: biochemical; details: about 10^-9 M labelled peptide, 50 mM Tricine pH 7.5; SDS at 0.01%
T1 construct: made in house; host or cells: chemical synthesis (solid-phase Fmoc) or purchased unlabelled peptide (Bachem); radioiodinated in house
T1 sequence (P05067 672-711): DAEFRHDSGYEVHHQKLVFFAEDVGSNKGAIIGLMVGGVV
Method: A solution of about 10^-9 M labelled β-amyloid peptide in 50 mM Tricine buffer at pH 7.5 was prepared from stock solution of the peptide as described hereinabove in Example 1. The solution was aliquotted into several reaction vessels (polypropylene microcentrifuge tubes) and allowed to stand at room temperature with occasional vortex mixing. At various times, the tubes were centrifuged at 12000 g for 4 minutes, and the fraction of initial (t=0) cpm of labelled peptide remaining in the supernatant fraction determined by removing a small aliquot for counting. The rate of disappearance was dependent on a variety of other conditions which were evaluated using this assay. Thus, the rate of the disappearance depends on peptide concentration (faster at higher peptide concentrations), and on ionic strength (faster at higher salt concentrations). The rate of disappearance was further dependent on the presence of certain detergents such as sodium dodecylsulfate (SDS) (faster in 0.01% SDS; see, FIG. 4), and on the presence of certain organic solvents (slower in the presence of acetonitrile).

[2] = test system: ceilan katia yarn (silk); assay: Effect of detergents and zinc on deposition of tracer onto silk; format: binding, Bombyx silkworm; details: for effect of detergent on rate of deposition (binding) onto silk: detergent concentration 0 to 1%
[3] = test system: tissue plaques; assay: Effect of metal ions, chelating agent and detergents on deposition of labelled peptide on tissue plaques; format: binding, human
Description: A deposition-enhancing agent may be added prior to the addition of the deposition-affecting agent to be tested.

[4] = test system: AD plaques; assay: Deposition of ^125 I-labelled β-amyloid peptides onto plaques in AD brain tissue (homogenate binding, autoradiography); set-up: species or system human; details: for deposition activity of fragment (active / not active): labelled fragment combined with AD amyloid plaque or silk, relative to βA(1-40)-OH
Method: Fragments labelled in accordance with the method described herein can be combined with amyloid plaque derived from Alzheimer's disease tissue or other amyloid substance such as silk, and tested for activity, for example, their ability to deposit on these materials.
(§1) Brain tissue was obtained form normal and Alzheimer's disease patients at 0.5 to 14 hours postmortem, frozen on dry ice after collection, and stored at -20° C. until use. For filter binding studies, tissue homogenates were prepared after the method of H. P. Too and M. R. Hanley, Biochem. J. 252:545 (1988), the disclosure of which is incorporated by reference herein. Tissue was homogenized (Polytron, setting 7-8, 5-10 sec) in 5-10 volumes of 50 mM Tricine (pH 7.5) containing 10% sucrose and protease inhibitors (0.01% bacitracin, 0.002% soybean trypsin inhibitor, 0.0002% chicken egg trypsin inhibitor, 1 mM benzamidine hydrochloride) and pelleted at 10,000 g for 20 minutes. The homogenate was then resuspended and washed several times in Tricine buffer containing 120 mM NaCl, 10 mM EDTA, 300 mM KCl and centrifuged at 40,000 g for 20 minutes and stored at -20° C. for less than two months. Membranes (equivalent to about 30 mg tissue) were resuspended in 0.5 ml 50 mM TrisHCl (pH 7.5) containing 1 mg/ml bovine serum albumin (BSA), 10 mM MnCl2, 0.004% bacitracin, 0.002% chymostatin, 0.004% leupeptin, 0.1% dimethylsulfoxide for 30 minutes prior to addition of the radioligand (10^-11 to 10^-9 M) and various concentrations of unlabelled peptides in the same buffer.
(§2) After incubating for two hours at room temperature, the homogenates (final volume 0.575 ml) were filtered through glass fiber filters (Whatman GF/D), presoaked for at least two hours in 1 mg/ml BSA and rinsed with 25 mM Tricine (pH 7.5). After washing twice with 25 mM TrisHCl (pH 7.5) at room temperature, the filters were counted in a gamma counter.
For tissue autoradiography, unfixed tissue was serially sectioned at 5-15 μm and thaw-mounted onto gelatin-coated slices. Slide-mounted sections were stored at -20° C. in closed boxes over desiccant for less than three months before use. Sections were preincubated for 30 minutes and incubated with the radioligand for two hours under the same conditions according to the aforedescribed homogenate binding study. Alternatively, 50 mM TrisHCl rather than Tricine may be used as the buffer. For estimating nonspecific binding, paired serial sections were incubated with the radioligand in the presence of a 10^4 to 10^5 fold excess of the unlabelled peptide. Following incubation with the radioligand, the slides were washed with 50 mM TrisHCl pH 7.5 (four times, two minutes each at 4° C.), then dried at 4° C. and stored in closed boxes over desiccant at room temperature overnight. The fully dried slides were then placed in apposition to tritium-sensitive film alongside iodinated standards. After one week's exposure at -20° C., the film was developed, fixed and washed. […] This approach generated film autoradiograms for quantitative densitometry,a high resolution emulsion autoradiograms for detailed histology, and a counterstained section for identification of cell types from each tissue section.
Briefly peptides were purchased or synthesized by fluorenemethoxycarbonyl chemistry on polystyrene resins, using acid-labile blocking groups for sidechain protection, cleaved with trifluoroacetic acid, and purified by RP-HPLC. […] Autoradiograms were quantitated by densitometry. […] To study the peptide fragments in water we developed a novel approach, measuring NMR data at 750 MHz using a prototype 10 mm ^1 H pulsed field gradient probe. Modified two-dimensional homonuclear TOCSY and NOESY experiments were measured at several pH values and structural information was derived using standard methods.

[5] = test system: Alzheimer's disease plaques; assay: Competitive inhibition of ^125 I-β-amyloid peptide^1-40 deposition in homogenates of Alzheimer's disease temporal cortex; format: binding, human; details: increasing concentrations of unlabelled peptide, AD temporal cortex homogenates (and sections)
Method: as §1, §2

[6] = molecular target: amyloid plaques in Alzheimer's disease brain tissue (homogenates and thin sections); assay: deposition of 125I-labelled peptide onto AD brain sections, autoradiography with densitometry
[7] = test system: adult rat brain; assay: Binding of radiolabelled rat β-amyloid peptide to rat brain
[8] = test system: ceilan katia yarn (silk); assay: Deposition of radiolabelled β-amyloid peptides onto silk; format: binding, Bombyx silkworm; details: in the presence of Triton X-100 (FIG. 5)
Method: Peptide deposition was conducted and detected as described in Example 2, except that instead of using brain tissue obtained from patients with Alzheimer's disease, silk was used as a template for β-amyloid deposition. The silk specimens were wound about or placed on a glass microscope slide and treated exactly as a piece of Alzheimer's disease (AD) brain tissue was treated in Example 2, using the same solutions, incubations times, etc. Experiments involving AD brain sections and control fabrics, such as nylon and cotton, were conducted in parallel.
Although screens of the many available silks were done at pH 8.5, later experiments were conducted at a preferably lower pH. Silk deposition experiments were done in 96-well plates. Labelled β-amyloid peptide concentration ranged from 20-100 pM, and the amount of silk used per assay ranged 0.5 to 5 mg.

[9] = test system: AD plaques; assay: Deposition of ^125 I-labelled β-amyloid peptides onto plaques in AD brain tissue (homogenate binding, autoradiography); set-up: species or system human
[10] = molecular target: amyloid plaques in Alzheimer's disease brain tissue (homogenates and thin sections); assay: deposition of labelled fragment
[11] = molecular target: silk; assay: deposition of radiolabelled peptide onto ceilan katia yarn with Triton X-100

How did the “rate of disappearance of tracer from the supernatant (aggregation)” value [1] turn out when `CCCCCCCCCCCCOS(=O)(=O)[O-].[Na+]` [SDS, sodium dodecyl sulfate] was run?
The value was “faster”.

And the “effect of detergent on rate of deposition (binding) onto silk” value [2]?
Its value is “increase binding rate”.

And the “effect of detergent on deposition of labelled peptide on tissue plaques” value [3]?
Its value is “enhance deposition”.

Which results are given for Triton X-100?
effect of detergent on rate of deposition (binding) onto silk [2]: no effect; effect of detergent on deposition of labelled peptide on tissue plaques [3]: no effect

For `CC[C@H](C)[C@H](NC(=O)[C@H](C)NC(=O)CNC(=O)[C@H](CCCCN)NC(=O)[C@H](CC(N)=O)NC(=O)[C@H](CO)NC(=O)CN)C(=O)N[C@H](C(=O)NCC(=O)N[C@@H](CC(C)C)C(=O)N[C@@H](CCSC)C(N)=O)[C@@H](C)CC` [βA(25-35)-NH2] (H-GSNKGAIIGLM-NH2), which “deposition activity of fragment (active / not active)” value [4] is on record?
Its value is “not active (exhibit less than about 1% of the deposition level of βA(1-40)OH)”.

What about the “inhibition of ^125 I-β-amyloid peptide^1-40 deposition onto plaques” value ([5]; listed as β-amyloid peptide^25-35 -NH2) of the same molecule?
Its value is “competed with the 40-mer radioligand when the former was present at much higher concentrations; also recorded: substantially less potent”.

For `CC#N` [acetonitrile], which “rate of disappearance of tracer from the supernatant (aggregation)” value [1] is on record?
The value was “slower”.

How did the activity relative to βA(1-40)-OH [6] turn out when βA(1-28)-OH (peptide) was run?
Its activity relative to βA(1-40)-OH is less than 1%.

Which results are given for “Radiolabelled rat β-amyloid peptide^1-40: radiolabelled rat β-amyloid peptide 1-40 (DAEFGHDSGFEVRHQKLVFFAEDVGSNKGAIIGLMVGGVV; also: radiolabelled, label site not given here; UniProt P08592 672-711, looked up)”?
binding to adult rat brain [7]: failed to bind; binding to Alzheimer's disease or normal human tissue [4]: failed to bind

Which “deposition activity of fragment (active / not active)” value [4] does the source give for “βA(1-40)-NH2: derivatized 40-mer, with a carboxyamide at the C-terminus” here?
The value was “active”.

And the “deposition of radiolabelled peptide onto ceilan katia yarn (silk)” value [8]?
Its value is “active”.

With `[Cl-].[Cl-].[Zn+2]` [zinc chloride] as the molecule, how does the “factor of acceleration of deposition of ^125 I-βA(1-40)-OH onto silk thread” value ([2]; tracer ^125 I-βA(1-40)-OH) read?
Its value is “about 5”.

And the “effect on deposition of ^125 I-βA(26-42)-NH2 onto silk” value ([2]; tracer ^125 I-βA(26-42)-NH2)?
Its value is “unaffected”.

What about the “enhancement of the rate of deposition of labelled peptide” value ([3]; 0.1 mM) of the same molecule?
Its value is “twenty-fold”.

What about the “effect on deposition of ^125 I-βA(26-42)-NH2 onto AD plaques” value ([3]; tracer ^125 I-βA(26-42)-NH2) of the same molecule?
The value was “unaffected”.

What does the source list for “rat βA(1-40)-OH: rat and mouse analogue (G^5, F^10, R^14) of β-amyloid peptide, 1-40 (DAEFGHDSGFEVHRQKLVFFAEDVGSNKGAIIGLMVGGVV-OH)”?
deposition activity of fragment (active / not active) [4]: not active (exhibit less than about 1% of the deposition level of βA(1-40)OH); inhibition of ^125 I-β-amyloid peptide^1-40 deposition onto plaques ([5]; listed as rat β-amyloid peptide^1-40): essentially inactive; inhibition of ^125 I-β-amyloid peptide^1-40 deposition onto plaques ([5]; listed as unlabelled rat β-amyloid peptide^1-40): did not inhibit

Which “plaque deposition (plaque competence) at pH 3.9” value ([9]; pH 3.9, quantitative densitometry of autoradiograms) does the source give for “^125 I-βA(1-40)-OH: ^125 I-radioiodinated (monoiodinated, reduced) human β-amyloid peptide 1-40 tracer” here?
The value was “plaque-incompetent”.

What about the “plaque deposition at pH 5.8” value ([9]; pH 5.8, 100% = deposition of ^125 I-βA(1-40)-OH at pH 7.4) of the same molecule?
Its value is 83%.

What about the “pH optimum of deposition onto plaques in AD tissue” value ([4]; 100 pM) of the same molecule?
The value was “around neutrality”.

What about the “deposition in tissue without preformed plaques” value ([4]; tissue without preformed plaques) of the same molecule?
The value was “no deposition was detected”.

B1: βA(26-42)-NH2 (peptide)
peptide: SNKGAIIGLMVGGVVIA-NH2
modifications: also: 125I-labelled after acylation with 4-hydroxyphenylpropionic acid, site not given here
B1 was tested. Which fold activity relative to β-amyloid peptide [10] did it give?
Its fold activity relative to β-amyloid peptide is 3 fold.

What about the fold activity relative to βA(1-40)-OH and βA(1-40)-NH2 [11] of the same molecule?
The fold activity relative to βA(1-40)-OH and βA(1-40)-NH2 was 3 times.

With YEVHHQKLVFFAEDVGSNKGAIIGLM-NH2 (not fully specified (residue 1)) [βA(10-35)-NH2] as the molecule, how does the activity relative to the full length peptide [6] read?
The activity relative to the full length peptide was 35%.
